Measured values as given in patent US20210261642A1, “SOLUBILITY OF GLP-1 PEPTIDE” (Novo Nordisk A/S, priority 2017, published 2021).

Experiment: Assay (I): Determination of Solubility (96-well plate, pH 3.0-11.0, organic solvent 0-70% w/w, UV absorption at 280 nm)
Format: physicochemical
Settings: for Peptide concentration after 180 min / Peptide concentration after 24 h / Peptide concentration after 5 min: Method 1; for GLP-1 peptide concentration: Method 2 (precipitation), 5° C.
Description: Assay (I): Determination of Solubility
96-Well Plate Preparation
96-well plates containing target peptide in a solid form were prepared in one of two ways:
Method 1 (evaporation): Addition of 100 μl stock solution of said peptide at a concentration of 4-6 mg/ml to each well of a 96-well half area plate (150 μl well size). Subsequently the solvent was evaporated by applying a vacuum until the solvent was completely removed.
Method 2 (precipitation): Addition of a certain volume of a stock solution of said peptide containing to each well of a 96-well half area plate followed by the addition of a certain volume of concentrated phosphoric acid to obtain a pH of 4.6 followed by addition of a certain volume of ethanol resulting in a final ethanol concentration of 20% v/v. Subsequently the plate was stored at 4° C. for 1 h and then centrifuged at 4,000 rpm for 20 min. Finally the supernatant was removed. The concentration of the stock solution was chosen in a way that the final amount of peptide after supernatant removal was >0.4 mg per well.
In both cases the stock solution was prepared by adding de-ionized water to a certain amount of powder of said peptide followed by a stepwise addition of small amounts of a concentrated sodium hydroxide solution until said peptide was completely in solution.
To determine solubility of a target peptide at different pH and organic solvent concentrations, two different buffer systems were used in independent experiments to cover the whole range from pH 3.0 to pH 11.0. Buffer system 1 covers pH 3.0-7.5 and buffer system 2 covers pH 7.5-11.0. For each buffer system 96 different solvent compositions were premixed in the following way: • 1. A low pH buffer (adjusted to either pH 3.0 or pH 7.5) and a high pH buffer (adjusted to either pH 7.5 or pH 11.0) were mixed at 8 different ratios to obtain values between pH 3.0 and pH 7.5 or pH 7.5 and pH 11.0, respectively. The total volume after mixing was 300 μl. • 2. 12 different amounts of organic solvent were then added to these buffers to obtain organic solvent (e.g. ethanol) concentrations between 0 and 70% w/w. • 3. Water was then added to obtain a total weight of 1.0 g of solvent in each well.
After preparing the 96 different solvent systems, 100 μl of each system was transferred to the 96-well plate containing the solid form of the target peptide (prepared as described in the section “96-well plate preparation”). The plate was then stored at a given temperature (between 5° C. and 70° C.) for a given time on a rotating shaker set to 400 rpm. At regular time intervals the plate was centrifuged (4,000 rpm for 10 min) and a 10 μl sample was taken from each well. The samples were then analysed by UV absorption at 280 nm for peptide quantification. Peptide concentration results are given as UV absorption at 280 nm of the sample subtracted UV absorption at 280 nm of a well comprising 10 μl water.
The buffers used were as follows: • Buffer system 1 (for the pH range from pH 3.0-7.5)
• Buffer system 2 (for the pH ranae from pH 7.5-11.0)
Solubility of liraglutide was determined using Assay (I) described herein. Liraglutide was prepared using Method 1 (evaporation) or Method 2 (precipitation) as described in subsection “96-well plate preparation”.

CCCCCCCCCCCCCCCC(=O)N[C@@H](CCC(=O)NCCCC[C@H](NC(=O)[C@H](C)NC(=O)[C@H](C)NC(=O)[C@H](CCC(N)=O)NC(=O)CNC(=O)[C@H](CCC(=O)O)NC(=O)[C@H](CC(C)C)NC(=O)[C@H](Cc1ccc(O)cc1)NC(=O)[C@H](CO)NC(=O)[C@H](CO)NC(=O)[C@@H](NC(=O)[C@H](CC(=O)O)NC(=O)[C@H](CO)NC(=O)[C@@H](NC(=O)[C@H](Cc1ccccc1)NC(=O)[C@@H](NC(=O)CNC(=O)[C@H](CCC(=O)O)NC(=O)[C@H](C)NC(=O)[C@@H](N)Cc1cnc[nH]1)[C@@H](C)O)[C@@H](C)O)C(C)C)C(=O)N[C@@H](CCC(=O)O)C(=O)N[C@@H](Cc1ccccc1)C(=O)N[C@H](C(=O)N[C@@H](C)C(=O)N[C@@H](Cc1c[nH]c2ccccc12)C(=O)N[C@@H](CC(C)C)C(=O)N[C@H](C(=O)N[C@@H](CCCNC(=N)N)C(=O)NCC(=O)N[C@@H](CCCNC(=N)N)C(=O)NCC(=O)O)C(C)C)[C@@H](C)CC)C(=O)O [liraglutide, Arg34,Lys26-(N-epsilon-(gamma-L-glutamyl(N-alfa-hexadecanoyl)))-GLP-1(7-37)]
0.7 mg/mL: Peptide concentration after 5 min (MeCN 50.9% w/w, pH 11.0, 5° C.) | Peptide concentration after 24 h (MeCN 63.6% w/w, pH 10.0, 5° C.) | Peptide concentration after 24 h (MeCN 70.0% w/w, pH 8.5, 5° C.)
1.9 mg/mL: Peptide concentration after 180 min (MeCN 57.3% w/w, pH 9.0, 5° C.)
1.8 mg/mL: Peptide concentration after 24 h (MeCN 57.3% w/w, pH 10.0, 5° C.)
0.3 mg/mL: Peptide concentration after 5 min (MeCN 63.6% w/w, pH 8.0, 5° C.) | Peptide concentration after 180 min (MeCN 63.6% w/w, pH 10.0, 5° C.) | Peptide concentration after 180 min (MeCN 63.6% w/w, pH 10.5, 5° C.) | Peptide concentration after 180 min (MeCN 70.0% w/w, pH 5.6, 5° C.) | Peptide concentration after 180 min (MeCN 70.0% w/w, pH 6.2, 5° C.) | Peptide concentration after 180 min (MeCN 70.0% w/w, pH 6.9, 5° C.) | Peptide concentration after 5 min (MeCN 70.0% w/w, pH 7.5, 5° C.) | Peptide concentration after 5 min (MeCN 70.0% w/w, pH 8.0, 5° C.) | Peptide concentration after 180 min (MeCN 70.0% w/w, pH 9.5, 5° C.) | Peptide concentration after 180 min (MeCN 70.0% w/w, pH 10.0, 5° C.)
1.0 mg/mL: Peptide concentration after 5 min (MeCN 50.9% w/w, pH 9.5, 5° C.) | Peptide concentration after 5 min (MeCN 57.3% w/w, pH 9.5, 5° C.)
>4.0 mg/mL: Peptide concentration after 24 h (MeCN 50.9% w/w, pH 8.0, 5° C.) | Peptide concentration after 24 h (MeCN 50.9% w/w, pH 8.5, 5° C.) | Peptide concentration after 24 h (MeCN 50.9% w/w, pH 9.0, 5° C.) | Peptide concentration after 24 h (MeCN 50.9% w/w, pH 9.5, 5° C.) | Peptide concentration after 24 h (MeCN 50.9% w/w, pH 10.0, 5° C.) | Peptide concentration after 24 h (MeCN 50.9% w/w, pH 11.0, 5° C.) | Peptide concentration after 24 h (MeCN 57.3% w/w, pH 9.0, 5° C.)
1.3 mg/mL: Peptide concentration after 24 h (MeCN 63.6% w/w, pH 11.0, 5° C.)
1.4 mg/mL: Peptide concentration after 5 min (MeCN 57.3% w/w, pH 10.0, 5° C.) | Peptide concentration after 180 min (MeCN 57.3% w/w, pH 11.0, 5° C.) | Peptide concentration after 5 min (MeCN 63.6% w/w, pH 9.0, 5° C.) | Peptide concentration after 24 h (MeCN 63.6% w/w, pH 9.5, 5° C.) | GLP-1 peptide concentration (MeCN 57.3% w/w, pH 9.00, 24 h, after removal of outliers) | GLP-1 peptide concentration (MeCN 57.3% w/w, pH 9.00, 24 h, before removal of outliers)
0.4 mg/mL: Peptide concentration after 24 h (MeCN 70.0% w/w, pH 5.6, 5° C.) | Peptide concentration after 180 min (MeCN 70.0% w/w, pH 7.5, 5° C.) | Peptide concentration after 180 min (MeCN 70.0% w/w, pH 8.0, 5° C.) | Peptide concentration after 180 min (MeCN 70.0% w/w, pH 8.5, 5° C.) | Peptide concentration after 180 min (MeCN 70.0% w/w, pH 9.0, 5° C.) | Peptide concentration after 24 h (MeCN 70.0% w/w, pH 10.0, 5° C.) | Peptide concentration after 24 h (MeCN 70.0% w/w, pH 10.5, 5° C.)
1.1 mg/mL: Peptide concentration after 5 min (MeCN 57.3% w/w, pH 10.5, 5° C.) | Peptide concentration after 180 min (MeCN 57.3% w/w, pH 10.5, 5° C.)
3.7 mg/mL: Peptide concentration after 24 h (MeCN 57.3% w/w, pH 8.5, 5° C.)
2.2 mg/mL: Peptide concentration after 180 min (MeCN 50.9% w/w, pH 8.0, 5° C.) | Peptide concentration after 180 min (MeCN 50.9% w/w, pH 11.0, 5° C.)
4.0 mg/mL: Peptide concentration after 24 h (MeCN 57.3% w/w, pH 9.5, 5° C.)
3.8 mg/mL: Peptide concentration after 24 h (MeCN 50.9% w/w, pH 10.5, 5° C.)
0.9 mg/mL: Peptide concentration after 5 min (MeCN 50.9% w/w, pH 10.5, 5° C.) | Peptide concentration after 5 min (MeCN 57.3% w/w, pH 11.0, 5° C.) | Peptide concentration after 180 min (MeCN 63.6% w/w, pH 9.0, 5° C.) | Peptide concentration after 24 h (MeCN 70.0% w/w, pH 9.0, 5° C.)
2.4 mg/mL: Peptide concentration after 180 min (MeCN 50.9% w/w, pH 9.5, 5° C.)
0.6 mg/mL: Peptide concentration after 5 min (MeCN 50.9% w/w, pH 8.5, 5° C.) | Peptide concentration after 5 min (MeCN 50.9% w/w, pH 9.0, 5° C.) | Peptide concentration after 180 min (MeCN 63.6% w/w, pH 8.0, 5° C.) | Peptide concentration after 5 min (MeCN 63.6% w/w, pH 8.5, 5° C.) | Peptide concentration after 24 h (MeCN 63.6% w/w, pH 10.5, 5° C.) | Peptide concentration after 180 min (MeCN 63.6% w/w, pH 11.0, 5° C.) | Peptide concentration after 24 h (MeCN 70.0% w/w, pH 8.0, 5° C.) | GLP-1 peptide concentration (MeCN 57.3% w/w, pH 9.00, 5 min, after removal of outliers) | GLP-1 peptide concentration (MeCN 57.3% w/w, pH 9.00, 5 min, before removal of outliers)
0.8 mg/mL: Peptide concentration after 180 min (MeCN 63.6% w/w, pH 8.5, 5° C.) | Peptide concentration after 24 h (MeCN 70.0% w/w, pH 7.5, 5° C.)
2.0 mg/mL: Peptide concentration after 180 min (MeCN 50.9% w/w, pH 9.0, 5° C.) | Peptide concentration after 180 min (MeCN 57.3% w/w, pH 9.5, 5° C.) | Peptide concentration after 24 h (MeCN 63.6% w/w, pH 8.0, 5° C.)
3.4 mg/mL: Peptide concentration after 24 h (MeCN 57.3% w/w, pH 8.0, 5° C.) | GLP-1 peptide concentration (MeCN 57.3% w/w, pH 9.00, 180 min, after removal of outliers) | GLP-1 peptide concentration (MeCN 57.3% w/w, pH 9.00, 180 min, before removal of outliers)
2.6 mg/mL: Peptide concentration after 180 min (MeCN 50.9% w/w, pH 8.5, 5° C.) | Peptide concentration after 180 min (MeCN 50.9% w/w, pH 10.0, 5° C.) | Peptide concentration after 24 h (MeCN 57.3% w/w, pH 11.0, 5° C.) | Peptide concentration after 24 h (MeCN 63.6% w/w, pH 9.0, 5° C.)
1.6 mg/mL: Peptide concentration after 180 min (MeCN 57.3% w/w, pH 8.0, 5° C.) | Peptide concentration after 180 min (MeCN 57.3% w/w, pH 8.5, 5° C.) | Peptide concentration after 180 min (MeCN 57.3% w/w, pH 10.0, 5° C.) | Peptide concentration after 24 h (MeCN 57.3% w/w, pH 10.5, 5° C.)
1.5 mg/mL: Peptide concentration after 5 min (MeCN 50.9% w/w, pH 10.0, 5° C.)
0.5 mg/mL: Peptide concentration after 5 min (MeCN 57.3% w/w, pH 8.0, 5° C.) | Peptide concentration after 5 min (MeCN 57.3% w/w, pH 8.5, 5° C.) | Peptide concentration after 5 min (MeCN 57.3% w/w, pH 9.0, 5° C.) | Peptide concentration after 180 min (MeCN 63.6% w/w, pH 9.5, 5° C.) | Peptide concentration after 5 min (MeCN 63.6% w/w, pH 11.0, 5° C.) | Peptide concentration after 24 h (MeCN 70.0% w/w, pH 6.2, 5° C.) | Peptide concentration after 24 h (MeCN 70.0% w/w, pH 6.9, 5° C.) | Peptide concentration after 24 h (MeCN 70.0% w/w, pH 9.5, 5° C.) | Peptide concentration after 24 h (MeCN 70.0% w/w, pH 11.0, 5° C.) | GLP-1 peptide concentration (MeCN 57.3% w/w, pH 9.50, 5 min, after removal of outliers)
2.1 mg/mL: Peptide concentration after 180 min (MeCN 50.9% w/w, pH 10.5, 5° C.) | Peptide concentration after 24 h (MeCN 63.6% w/w, pH 8.5, 5° C.)
0.2 mg/mL: Peptide concentration after 5 min (MeCN 63.6% w/w, pH 9.5, 5° C.) | Peptide concentration after 5 min (MeCN 63.6% w/w, pH 10.0, 5° C.) | Peptide concentration after 5 min (MeCN 63.6% w/w, pH 10.5, 5° C.) | Peptide concentration after 5 min (MeCN 70.0% w/w, pH 5.6, 5° C.) | Peptide concentration after 5 min (MeCN 70.0% w/w, pH 6.2, 5° C.) | Peptide concentration after 5 min (MeCN 70.0% w/w, pH 6.9, 5° C.) | Peptide concentration after 5 min (MeCN 70.0% w/w, pH 8.5, 5° C.) | Peptide concentration after 5 min (MeCN 70.0% w/w, pH 9.0, 5° C.) | Peptide concentration after 5 min (MeCN 70.0% w/w, pH 9.5, 5° C.) | Peptide concentration after 5 min (MeCN 70.0% w/w, pH 10.0, 5° C.) | Peptide concentration after 5 min (MeCN 70.0% w/w, pH 10.5, 5° C.) | Peptide concentration after 180 min (MeCN 70.0% w/w, pH 10.5, 5° C.) | Peptide concentration after 5 min (MeCN 70.0% w/w, pH 11.0, 5° C.) | Peptide concentration after 180 min (MeCN 70.0% w/w, pH 11.0, 5° C.)
